Results published in PMC10385868 (Viruses, 2023).
In brackets after ≈: the same amount, converted by molar mass. Like-named read-outs stand apart in the source and are kept apart here.

How the values were obtained:
[1] = biological target: T1, VEEV nsP2 protease (Venezuelan equine encephalitis virus, UniProt P27282); assay: biochemical; assay type: biochemical
[2] = tested on: VEEV-Trd; assay: microbe, parasite or virus in culture; assay type: cell-based, Venezuelan equine encephalitis virus
[3] = in vitro; conditions: African green monkey
[4] = tested on: EEEV; assay: microbe, parasite or virus in culture; assay type: cell-based; conditions: Eastern equine encephalitis virus, A549, read-out: EEEV EC50
[5] = biological target: T1, VEEV nsP2 protease; assay: biochemical; conditions: for kinact/KI: read-out: VEEV nsP2 PROTEASE k2/Ki
[6] = in vitro; conditions: human
[7] = tested on: VEEV-TC83; assay: microbe, parasite or virus in culture; assay type: cell-based; conditions: Venezuelan equine encephalitis virus, HeLa, read-out: VEEV-TC83 EC50
[8] = in vitro
[9] = tested on: VEEV-Trinidad; assay: microbe, parasite or virus in culture; assay type: cell-based; conditions: Venezuelan equine encephalitis virus
[10] = tested on: CHIKV; assay: microbe, parasite or virus in culture; assay type: cell-based; conditions: Chikungunya virus, U2OS, read-out: CHIKV EC50
[11] = tested on: WEEV; assay: microbe, parasite or virus in culture; assay type: cell-based; conditions: Western equine encephalitis virus, HeLa, read-out: WEEV EC50
[12] = tested on: cell viability
[13] = tested on: VEEV Trinidad; assay type: cell-based, Venezuelan equine encephalitis virus
[14] = in vitro; conditions: SD, rat, microsomes
[15] = rat, microsomes
[16] = physchem
[17] = in vitro; conditions: PAMPA
[18] = tested on: VEEV-infected HeLa cells; assay: microbe, parasite or virus in culture; assay type: cell-based, Venezuelan equine encephalitis virus
[19] = Venezuelan equine encephalitis virus
[20] = A549, read-out: VEEV-Trinidad EC50

T1 sequence (P27282 1003-1322 limits assumed): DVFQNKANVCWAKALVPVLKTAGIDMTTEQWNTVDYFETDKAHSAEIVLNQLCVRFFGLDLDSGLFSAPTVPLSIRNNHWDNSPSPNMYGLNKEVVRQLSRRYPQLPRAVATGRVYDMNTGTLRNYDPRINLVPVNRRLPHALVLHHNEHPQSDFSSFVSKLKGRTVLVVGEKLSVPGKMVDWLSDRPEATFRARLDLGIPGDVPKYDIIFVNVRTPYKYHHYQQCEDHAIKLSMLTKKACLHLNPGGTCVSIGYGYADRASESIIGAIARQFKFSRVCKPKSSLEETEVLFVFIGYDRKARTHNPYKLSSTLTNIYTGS

Compound: CC(=O)NC1C(=O)N(CCN2CCOCC2)c2ccc(Br)cc21 (stereo not drawn) [MLS001215987-01]
- IC50 [1]: 14 ± 3 µM
- EC50 [2, 19]: > 50 µM
- CC50 [3]: > 50 µM

Compound: CC(C)CCNC(=O)[C@H](CC(C)C)NC(=O)[C@H]1O[C@@H]1C(=O)NCc1cccc(C#N)c1 [NCGC00488909-01]
- EC50 [4]: 43 µM
- Ki [5]: 3 µM
- kinact/KI [5]: 862 M⁻¹ s⁻¹
- CC50 [6]: > 50 µM
- EC50 [7]: 1.48 µM
- CC50 ([8]; African green monkey): > 100 µM
- CC50 ([8]; human): > 50 µM
- EC50 ([9]; A549): 1.8 µM
- EC50 [9, 20]: 1.76 µM
- EC50 [10]: 9.85 µM
- EC50 [11]: 5.02 µM

Compound: O=C(CSc1ccccn1)Nc1nonc1[N+](=O)[O-] [MLS001030320-01]
- CC50 [12]: > 50 µM
- IC50 ([1]; read-out: IC50): > 100 µM
- EC50 ([2]; read-out: EC50): > 50 µM

Compound: O=c1[nH]c2ccccc2n1CCCN1CCN(C(c2ccccc2)c2ccccc2)CC1 [oxatomide]
- antiviral activity in plaque assays [13]: notable antiviral activities
- reduction of VEEV viral replication in plaque assays [13]: > 5 log

Compound: CC(C)CCNC(=O)[C@H](CC(C)C)NC(=O)[C@H]1O[C@@H]1C(=O)NCCCCO [NCGC00488906-01]
- EC50 [4]: > 100 µM
- kinact/KI [5]: 12 M⁻¹ s⁻¹
- CC50 [6]: > 50 µM
- EC50 [7]: 26.6 µM
- half-life [14]: > 30 min
- CC50 ([8]; African green monkey): > 100 µM
- CC50 ([8]; human): > 50 µM
- Rat_SD/Microsomes t1/2 [15]: >30 m
- EC50 ([9]; A549): 26 µM
- EC50 [9, 20]: 26.4 µM
- EC50 [10]: 18.5 µM
- EC50 [11]: 20.4 µM
- solubility [16]: 15.9 µg/mL (≈ 41.2 µM)

Compound: COc1cc(NS(C)(=O)=O)ccc1Nc1c2ccccc2nc2ccccc12 [amsacrine]
- antiviral activity in plaque assays [13]: notable antiviral activities

Compound: CCc1nc(N2CCN(C(=O)CCl)CC2)c2c3c(sc2n1)CC(C)CC3 (stereo not drawn) [MLS001212815-01]
- CC50 [12]: > 50 µM
- IC50 ([1]; read-out: IC50): > 200 µM
- EC50 ([2]; read-out: EC50): > 50 µM

Compound: COc1ccc(C2CC(c3cccs3)=NN2C(=O)CCl)cc1OC (stereo not drawn) [MLS001178292-01]
- CC50 [12]: > 50 µM
- cytotoxicity [12]: cytotoxic
- IC50 ([1]; read-out: IC50): > 200 µM
- antiviral activity against VEEV-Trd in cell-based assays ([2]; at 50 µM): did not demonstrate significant antiviral activity

Compound: CCC(C)C(NC(=O)C1OC1C(=O)NC(CC(C)C)C(=O)NCCC(C)C)C(=O)N1CCCC1C(=O)OCc1ccccc1 (stereo not drawn) [NCGC00484087-01]
- EC50 [4]: 13.2 µM
- Papp [17]: 1090 ×10⁻⁶ cm/s
- PAMPA: 1089.1 ×10⁻⁶ cm/s
- Ki [5]: 5 µM
- kinact/KI [5]: 100 M⁻¹ s⁻¹
- CC50 [6]: > 50 µM
- EC50 [7]: 2.17 µM
- half-life [14]: 1.5 min
- CC50 ([8]; African green monkey): > 100 µM
- CC50 ([8]; human): > 50 µM
- Rat_SD/Microsomes t1/2 [15]: 1.5 m
- EC50 ([9]; A549): 8 µM
- EC50 [9, 20]: 7.9 µM
- EC50 [11]: 5.74 µM
- solubility [16]: 4.1 µg/mL (≈ 6.67 µM)

Compound: O=C(Nc1ccccc1)NN(C(=O)CCl)c1ccccc1 [MLS001177992-01]
- CC50 [12]: > 50 µM
- EC50 ([2]; read-out: EC50): > 50 µM

Compound: C#Cc1cc(N2CCN(C(=O)c3ccoc3)CC2)n2nc(-c3cccc(Cl)c3)cc2n1 [MLS003116111-01]
- antiviral activity in plaque assays [13]: notable antiviral activities

Compound: N=c1c2c(-c3ccccc3)c(-c3ccccc3)n(Cc3ccccc3)c2ncn1C1CCC(O)CC1 (stereo not drawn) [NCGC00247785-13]
- antiviral activity in plaque assays [13]: notable antiviral activities

Compound: O=c1[nH]c(=O)n(-c2ccccc2F)c(O)c1/C=C1\C=Nc2ccccc21 [MLS001197204-01]
- CC50 [12]: > 50 µM
- IC50 ([1]; read-out: IC50): 30 ± 20 µM
- EC50 ([2]; read-out: EC50): > 50 µM

Compound: CC(C)CCNC(=O)[C@H](CC(C)C)NC(=O)[C@H]1O[C@@H]1C(=O)NCc1cccnc1 [NCGC00488907-01]
- EC50 [4]: < 50 µM
- Papp [17]: < 4.3 ×10⁻⁶ cm/s
- PAMPA: <4.3 ×10⁻⁶ cm/s
- kinact/KI [5]: 86 M⁻¹ s⁻¹
- CC50 [6]: > 50 µM
- EC50 [7]: 5.22 µM
- half-life [14]: 6.4 min
- CC50 ([8]; African green monkey): > 100 µM
- CC50 ([8]; human): > 50 µM
- Rat_SD/Microsomes t1/2 [15]: 6.4 m
- EC50 ([9]; A549): 6 µM
- EC50 [9, 20]: 5.97 µM
- EC50 [10]: 25.9 µM
- EC50 [11]: 8.76 µM

Compound: CCCNC(=O)[C@H]1O[C@H]1C(=O)N[C@H](C(=O)N1CCC[C@@H]1C(=O)OC)C(C)CC (stereo partly drawn) [NCGC00163431-03]
- concentration at which toxicity / cytotoxicity was seen ([12]; African green monkey): 100 µM
- inhibition [18]: 83%
- inhibition at 1.562 µM ([18]; Venezuelan equine encephalitis virus, HeLa): 82.9%
- concentration showing inhibition in cell-based assays [2]: < 15 µM

Compound: CC(C)CCNC(=O)[C@H](CC(C)C)NC(=O)[C@H]1O[C@@H]1C(=O)NCc1ccc(C#N)cc1 [NCGC00488904-01]
- EC50 [4]: 16.2 µM
- kinact/KI [5]: 61 M⁻¹ s⁻¹
- CC50 [6]: > 50 µM
- EC50 [7]: 4.09 µM
- CC50 ([8]; African green monkey): > 100 µM
- CC50 ([8]; human): > 50 µM
- EC50 ([9]; A549): 4 µM
- EC50 [9, 20]: 4.29 µM
- EC50 [10]: 14.8 µM
- EC50 [11]: 5.15 µM

Compound: CC(C)CCNC(=O)C(CC(C)C)NC(=O)C1OC1C(=O)O (stereo not drawn) [NCGC00018306-02]
- concentration showing inhibition in cell-based assays [2]: < 15 µM

Compound: CC(=O)NC1C(=O)N(CCN2CCOCC2)c2ccc(F)cc21 (stereo not drawn) [MLS001215963-01]
- IC50 [1]: 16 ± 3 µM

Compound: CC[C@H]1CN2CCc3cc(OC)c(OC)cc3[C@@H]2C[C@@H]1C[C@H]1NCCc2cc(OC)c(OC)cc21 [emetine]
- antiviral activity in plaque assays [13]: notable antiviral activities

Compound: O=C(/C=C/c1cccs1)Nc1scc(-c2ccccc2)c1C(=O)O [MLS000773385-01]
- IC50 [1]: 15 ± 2 µM
- EC50 [2, 19]: > 50 µM
- CC50 [3]: > 50 µM

Compound: CC(C)CCNC(=O)[C@H](CC(C)C)NC(=O)[C@H]1O[C@@H]1C(=O)NCCCO [NCGC00487434-01]
- CC50 ([8]; African green monkey): > 100 µM
- Rat_SD/Microsomes t1/2 [15]: >30 m
- EC50 ([9]; A549): 70 to 80 µM
- solubility [16]: 22 µg/mL (≈ 59.2 µM)

Compound: CCc1ccc2c(c1)C(NC(C)=O)C(=O)N2CCN1CCOCC1 (stereo not drawn) [MLS001215951-01]
- IC50 [1]: 18 ± 7 µM
- EC50 [2, 19]: > 50 µM
- CC50 [3]: > 50 µM

Compound: O=c1cc(N2CCOCC2)oc2c1ccc1ccccc12 [NCGC00165840-02]
- Permeability (PAMPA_Pion_Lipid) (PAMPA): 294.2 ×10⁻⁶ cm/s
- Rat_SD/Microsomes t1/2 [15]: >30 m

Compound: COc1cc2c(cc1OC)C(c1cc(Br)ccc1F)N(C(=O)CCl)CC2 (stereo not drawn) [MLS001198393-01]
- CC50 [12]: > 50 µM
- IC50 ([1]; read-out: IC50): > 200 µM
- EC50 ([2]; read-out: EC50): > 16.7 µM

Compound: Cc1ccc(C2=NN(C(=O)CCl)C(c3ccco3)C2)o1 (stereo not drawn) [MLS001179882-01]
- CC50 [12]: > 50 µM
- IC50 ([1]; read-out: IC50): > 200 µM
- EC50 ([2]; read-out: EC50): > 50 µM

Compound: CC(C)CCNC(=O)[C@H](CC(C)C)NC(=O)[C@H]1O[C@@H]1C(=O)NCc1ccncc1 [NCGC00488908-01]
- EC50 [4]: ≥ 100 µM
- Papp [17]: 7.6 ×10⁻⁶ cm/s
- PAMPA: 7.6 ×10⁻⁶ cm/s
- kinact/KI [5]: 23 M⁻¹ s⁻¹
- CC50 [6]: > 50 µM
- EC50 [7]: 9.23 µM
- half-life [14]: > 30 min
- CC50 ([8]; African green monkey): > 100 µM
- CC50 ([8]; human): > 50 µM
- Rat_SD/Microsomes t1/2 [15]: >30 m
- EC50 ([9]; A549): 9.5 µM
- EC50 [9, 20]: 9.45 µM
- EC50 [10]: 50 µM
- EC50 [11]: 14.6 µM
- solubility [16]: > 60 µg/mL

Compound: Cc1cc(C(=O)CCl)c(C)n1-c1cccc([N+](=O)[O-])c1 [MLS000877947-01]
- CC50 [12]: > 50 µM
- IC50 ([1]; read-out: IC50): > 200 µM
- EC50 ([2]; read-out: EC50): > 50 µM
